Data: patent US20260297129A1, “PEPTIDES AS SELECTIVE IL-23 RECEPTOR INHIBITORS” (SANOFI, priority 2023, published 2026)
Read-outs that look alike come from different tables or passages of the source. Numbered stars: 1 amine (or outer) side, 2 acyl side, 3 side chain; on linkers, the order of the positions; unused ones are H or OH. Bridge positions count the residues as written; N and C are the ends. Square brackets hold non-standard residues; d marks the D form. Peptide text beside a SMILES is read from it. * marks the point of attachment. Lys(Me,(CH2)4NMe(CH2)5CO) = CN(CCCCCC(=O)[*:3])CCCCN(C)CCCC[C@H](N[*:1])C(=O)[*:2]; Lys(Me,(CH2)4NMe(CH2)4CO) = CN(CCCCC(=O)[*:3])CCCCN(C)CCCC[C@H](N[*:1])C(=O)[*:2]; Trp(7-Me) = Cc1cccc2c(C[C@H](N)C(=O)O)c[nH]c12; Trp(1-Me) = Cn1cc(C[C@H](N)C(=O)O)c2ccccc21; NH(2-(3-pyridyl)ethyl) = c1cncc(CCN*)c1; αMeLys(Me2) = CN(C)CCCC[C@](C)(N)C(=O)O; 2Nal = N[C@@H](Cc1ccc2ccccc2c1)C(=O)O; 3Pal = N[C@@H](Cc1cccnc1)C(=O)O; Thp = NC1(C(=O)O)CCOCC1; Me2NCH2CH2 = CN(C)CC*; Aib = CC(C)(N)C(=O)O; Sar = CNCC(=O)O

Experiments:
[1] = system: IL-23 induced STAT3 signaling (IL-23 receptor) in HEK-Blue IL-23 cells; experiment: Inhibition of IL-23 induced STAT3 signaling in HEK-Blue IL-23 cells, SEAP reporter (Table 9); type: cell-based; settings: human IL23 0.25 ng/ml, overnight, read-out: Inhibition of IL-23 induced pSTAT3 (IC50 nM)
Source text: HEK-Blue™ IL-23 cells (INVIVOGEN) are designed for the detection of bioactive human (hIL-23) and murine IL-23 (mIL-23) by monitoring the activation of the STAT3 pathway. Binding of IL-23 to its receptor on the surface of HEK-Blue™ IL-23 cells triggers a signaling cascade leading to the activation of STAT3 and the subsequent production of secreted embryonic alkaline phosphatase (SEAP). This can be readily assessed using QUANTI-Blue™ Solution, a SEAP detection reagent.
HEK-Blue™ IL-23 cells were cultured as described by INVIVOGEN.
On the first day of assay 10 μL of the HEK-BLUE IL23 cell suspension (final concentration: 10,000 cells/well) and 10 μl of serially diluted peptides solutions were dispensed into a 384-well assay plate. After pre-incubation of the reaction mixtures at 37° C./5% CO2/95% humidity for 60 minutes, 10 μl of the humanIL23 cytokine (final concentration: 0.25 ng/ml) was added to each well for the STAT3 signaling activation. The plate was incubated overnight at 37° C./5% CO2/95% humidity.
On the second day 20 μl per well of QUANTI-BLUE detection solution (prepared according to the manufacture instruction) was dispensed into a new 384-well plate and followed by the transfer of 5 μl supernatant of the overnight incubated cell/sample mixtures. After incubation of 45 min at room temperature signals were measured with PHERASTAR (BMG) at OD 620-655 nm.
Dose response data were fitted with XLfit.

[2] = Protease stability in simulated gastric fluids (FaSSGF) (Table 7); type: in vitro ADME; settings: fassgf with pepsin, 60 min, 37° C., read-out: Remaining percentage of peptide compound, FaSSGF 60 (min)
Protocol: (§1) Studies were carried out in simulated intestinal fluid (SIF) and simulated gastric fluid (SGF) to evaluate gastric stability of the peptide compounds disclosed herein.
For clarification, the term “Pepsin-SGF” refers to a solution of simulated gastric fluid containing pepsin whereas “SGF media” refers to a solution of simulated gastric fluid without pepsin. Pepsin-SGF was prepared by dissolving 320 mg Pepsin (Merck Millipore) in 100 mL SGF media concentrate (PROSENSE).
(§2) Peptide compounds were first dissolved at 1 mM stock concentration in 0.01 HCl (+/−10% of DMSO) and were than diluted further with water to a stock concentration of 20 μM. Final peptide concentration in the incubation was 1 μM.
(§3) To 76 μL of the Pepsin-SGF buffer, 4 μL of the 20 μM peptide stock solution was added and incubated at 37° C. At each timepoint (0, 60, 120 and 240 minutes) the reaction was quenched with addition of 80 μL Ethanol (0,1% HCOOH). The samples were centrifuged for 20 minutes and an aliquot of the supernatant 100 μL were transferred to a LoBind-MTP plate and analyzed by LCMS/MS. The peak area response was calculated at each time point for each test compound. As internal reference, the peak area response of the same test compound at T0 was calculated. The percentage remaining at each timepoint was calculated based on the peak area response ratio of the test compound at T0. Time 0 was set to 100%, and all later timepoints were calculated relative to time 0.
as §3, with “(0.1%” for “(0,1%”

[3] = Protease stability in simulated intestinal fluids (FaSSIF) (Table 7); type: in vitro ADME; settings: fassif with pancreatin, 37° C.; for remaining at 1 h, 1 µM: 60 min, read-out: Remaining percentage of peptide compound, FaSSIF 60 (min); for remaining at 2 h, 1 µM: 120 min, read-out: Remaining percentage of peptide compound, FaSSIF 120 (min); for remaining at 4 h, 1 µM: 240 min, read-out: Remaining percentage of peptide compound, FaSSIF 240 (min)
Protocol: as §1
Similarly, the term “Pancreatin-SIF” refers to a solution of simulated intestinal fluid containing pancreatin whereas “SIF-media” refers to a solution of simulated intestinal fluid without pancreatin. Pancreatin-SIF was prepared by dissolving 1 mg Pancreatin (MP Biomedicals) in 10 mL SIF media concentrate (PROSENSE).
as §2
as §3, with “(0.1%” for “(0,1%”

[4] = Solubility of peptide compounds in buffer formulations (Table 5); type: physicochemical; settings: target 1 mg/ml
Protocol: Prior to the solubility measurement of a peptide batch, its purity was determined through UHPLC/MS method A.
For solubility testing the target concentration was 1 mg pure compound/ml. Therefore, solutions from solid samples were prepared in a buffer system at a concentration of 1 mg/mL compound. The solid samples were obtained by drying down aliquots of a freshly prepared dimethyl sulfoxide stock solution using a THERMO SPEEDVAC vacuum centrifuge. The dry down time was 3 hours.
The following buffer systems were applied: • Solubility buffer system A) 50 mM HCl pH 1.2 • Solubility buffer system B) 50 mM phosphate buffer pH 6.5 • Solubility buffer system C) 50 mM phosphate buffer pH 7.4 • UHPLC-UV was performed using analytical method A after 2 hours of gentle agitation from the filtered (0.45 μm filter plates) solutions, which were obtained by 10 mins of centrifugation forced filtration at 1500 RCF (relative centrifugal acceleration).
The solubility was determined by the comparison of the UV peak area of 2 μL-injections of a buffered sample diluted 1:10 with a standard curve of a dimethyl sulfoxide reference sample of known concentration. The different extinction coefficients were taken into account for the calculation.

[5] = Buffer pH 1.1 (head; method: 50 mM HCl pH 1.2), 2 h agitation, read-out: Solubility, Buffer pH 1.1
[6] = aqueous buffer, 50 mM phosphate buffer pH 6.5, 2 h agitation, read-out: Solubility, Buffer pH 6.5
[7] = aqueous buffer, 50 mM phosphate buffer pH 7.4, 2 h agitation, read-out: Solubility, Buffer pH 7.4

remaining at 1 h, 1 µM [2] [%]	remaining at 1 h, 1 µM [3] [%]	remaining at 2 h, 1 µM [3] [%]	remaining at 4 h, 1 µM [3] [%]	solubility at 2 h [4, 5] [µg/mL]	solubility at 2 h [4, 6] [µg/mL]	solubility at 2 h [4, 7] [µg/mL]	Compound	IC50 [1] [nM]
98	97	95	96	≥ 950	≥ 890	≥ 860	CN(C)CCOc1ccc(C[C@@H]2NC(=O)C3(CCOCC3)NC(=O)[C@H](CCC(N)=O)NC(=O)[C@H](Cc3cn(C)c4ccccc34)NC(=O)CCCCN(C)CCCCN(C)CCCC[C@@H](C(=O)NCC(=O)NCCc3cccnc3)NC(=O)C(C)(C)NC(=O)[C@H](Cc3ccc4ccccc4c3)NC2=O)cc1 [compound 25] ([Trp(1-Me)]Q[Thp]Y(Me2NCH2CH2)[2Nal][Aib][Lys(Me,(CH2)4NMe(CH2)4CO)]G-{NH(2-(3-pyridyl)ethyl)}; lactam N-7)	42.5
95	92	88	87	≥ 1000	≥ 1010	≥ 890	Cc1cccc2c(C[C@@H]3NC(=O)CCCCCN(C)CCCCN(C)CCCC[C@@H](C(=O)NCC(=O)N[C@@H](Cc4cccnc4)C(=O)N(C)CC(N)=O)NC(=O)C(C)(C)NC(=O)[C@H](Cc4ccc5ccccc5c4)NC(=O)[C@H](Cc4ccc(OCCN(C)C)cc4)NC(=O)C4(CCOCC4)NC(=O)[C@H](CCC(N)=O)NC3=O)c[nH]c12 [compound 26] ([Trp(7-Me)]Q[Thp]Y(Me2NCH2CH2)[2Nal][Aib][Lys(Me,(CH2)4NMe(CH2)5CO)]G[3Pal][Sar]-NH2; lactam N-7)	2.32
100	97	94	94	≥ 980	≥ 920	≥ 960	CC(=O)NCCCC[C@@H]1NC(=O)[C@H](Cc2c[nH]c3c(C)cccc23)NC(=O)CCCCCN(C)CCCCN(C)CCCC[C@@H](C(=O)NCC(=O)N[C@@H](Cc2cccnc2)C(=O)N(C)CC(N)=O)NC(=O)C(C)(C)NC(=O)[C@H](Cc2ccc3ccccc3c2)NC(=O)[C@H](Cc2ccc(OCCN(C)C)cc2)NC(=O)C2(CCOCC2)NC1=O [compound 27] ([Trp(7-Me)]K(Ac)[Thp]Y(Me2NCH2CH2)[2Nal][Aib][Lys(Me,(CH2)4NMe(CH2)5CO)]G[3Pal][Sar]-NH2; lactam N-7)	3.12
100	97	94	94	≥ 1000	≥ 1120	≥ 950	CN(C)CCOc1ccc(C[C@@H]2NC(=O)C3(CCOCC3)NC(=O)[C@H](CCC(N)=O)NC(=O)[C@H](Cc3cn(C)c4ccccc34)NC(=O)CCCCCN(C)CCCCN(C)CCCC[C@@H](C(=O)N[C@@H](CC(N)=O)C(=O)N[C@@H](Cc3cccnc3)C(=O)N(C)CC(N)=O)NC(=O)C(C)(C)NC(=O)[C@H](Cc3ccc4ccccc4c3)NC2=O)cc1 [compound 33] ([Trp(1-Me)]Q[Thp]Y(Me2NCH2CH2)[2Nal][Aib][Lys(Me,(CH2)4NMe(CH2)5CO)]N[3Pal][Sar]-NH2; lactam N-7)	0.8
100	59	42	23	≥ 1010	≥ 1030	≥ 1040	CC(=O)NCCCC[C@@H]1NC(=O)[C@H](Cc2c[nH]c3ccccc23)NC(=O)CCCCN(C)CCCCN(C)CCCC[C@@H](C(=O)N[C@@H](CO)C(=O)N[C@@H](Cc2cccnc2)C(=O)N(C)CC(N)=O)NC(=O)C(C)(C)NC(=O)[C@H](Cc2ccc3ccccc3c2)NC(=O)[C@H](Cc2ccc(OCCN(C)C)cc2)NC(=O)C2(CCOCC2)NC1=O [compound 42] (WK(Ac)[Thp]Y(Me2NCH2CH2)[2Nal][Aib][Lys(Me,(CH2)4NMe(CH2)4CO)]S[3Pal][Sar]-NH2; lactam N-7)	4.37
98	97	91	91	≥ 1200	≥ 1150	≥ 1170	CC(=O)NCCCC[C@@H]1NC(=O)[C@H](Cc2c[nH]c3c(C)cccc23)NC(=O)CCCCN(C)CCCCN(C)CCCC[C@@H](C(=O)N[C@@H](CC(N)=O)C(=O)N[C@@H](Cc2cccnc2)C(=O)N(C)CC(N)=O)NC(=O)[C@](C)(CCCCN(C)C)NC(=O)[C@H](Cc2ccc3ccccc3c2)NC(=O)[C@H](Cc2ccc(OCCN(C)C)cc2)NC(=O)C2(CCOCC2)NC1=O [compound 47] ([Trp(7-Me)]K(Ac)[Thp]Y(Me2NCH2CH2)[2Nal][αMeLys(Me2)][Lys(Me,(CH2)4NMe(CH2)4CO)]N[3Pal][Sar]-NH2; lactam N-7)	1.2
